Test systems include NCI-H522 lung; IGROV1 ovarian; SK-OV-3 ovarian; M14 melanoma; CAKI-1 renal; TK-10 renal; MALME-3M melanoma; SW-620 colon; HT29 colon; HCC-2998 colon.
Experiment in all cases: DTP human tumour cell line panel, 48 h

Each structure is given as a SMILES string. Where “and” joins values, the source holds several entries; their conditions need not be identical. Equal entries are not always repeated.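 Growth conditions: 96-well plates. Treatment: test compound, 48 hours, 5 concentrations. Analysis: linear interpolation between bracketing concentrations; unreached endpoints set to highest concentration. GI50 = concentration required for 50% inhibition of growth. TGI is the concentration that stops growth completely.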

Turning to `CCCCN(CCCC)c1ccc(C(=N)c2ccc(N(CCCC)CCCC)cc2)cc1`, the concentration for 50% growth inhibition (GI50) (usually the concentration at which growth is held to half of that of the control) was 232 nM in the assay with NCI-H522 lung; 1040 nM in the assay on IGROV1 ovarian; 1190 nM in the assay with SK-OV-3 ovarian; 672 nM with M14 melanoma; 535 nM in the assay with CAKI-1 renal; 453 nM in the assay with TK-10 renal. Moreover, the GI50 with MALME-3M melanoma was 508 nM; in the assay with SW-620 colon, 306 nM; in the assay on HT29 colon it was 282 nM; in the assay on HCC-2998 colon, 442 nM. For the same molecule, the TGI (in general, the concentration giving total growth inhibition) with NCI-H522 lung came to 727 nM; in the assay with IGROV1 ovarian, 2660 nM; with SK-OV-3 ovarian, 2470 nM; with M14 melanoma, 2090 nM; with CAKI-1 renal it was 1820 nM; in the assay with TK-10 renal, 1530 nM. The total growth inhibition concentration (TGI) turned out to be 2120 nM with MALME-3M melanoma, 1290 nM in the assay with SW-620 colon, 1030 nM in the assay on HT29 colon and 1650 nM with HCC-2998 colon.

Take `CCOc1ccccc1N=Nc1c(C)[nH]n(-c2nc(-c3ccccc3)cs2)c1=O`: the GI50 in the assay with NCI-H522 lung was 22100 nM; in the assay on IGROV1 ovarian it was 25800 nM; in the assay with SK-OV-3 ovarian, 38900 nM; with M14 melanoma, greater than 100000 nM; in the assay with CAKI-1 renal, greater than 54200 nM; in the assay on TK-10 renal, 43400 nM. The GI50 was 60900 nM in the assay with MALME-3M melanoma, greater than 100000 nM in the assay with SW-620 colon, 97900 nM with HT29 colon and greater than 100000 nM in the assay on HCC-2998 colon. In addition, the TGI was 87600 nM in the assay with NCI-H522 lung; greater than 85300 nM with IGROV1 ovarian; greater than 100000 nM in the assay on SK-OV-3 ovarian; greater than 100000 nM in the assay with M14 melanoma; greater than 100000 nM in the assay on CAKI-1 renal; greater than 94200 nM with TK-10 renal. Besides, the TGI with MALME-3M melanoma, with SW-620 colon, in the assay on HT29 colon and with HCC-2998 colon was greater than 100000 nM each time.

For the molecule `CS[C@]12C(=O)C[C@@]3(C)[C@@H](CC[C@]3(O)C(=O)CO)[C@@H]1CCC1=CC(=O)CC[C@@]12C`, the TGI in the assay with NCI-H522 lung, with IGROV1 ovarian, in the assay with SK-OV-3 ovarian, in the assay with M14 melanoma, with CAKI-1 renal and in the assay on TK-10 renal was greater than 100000 nM each time. Moreover, the TGI with MALME-3M melanoma was greater than 100000 nM; in the assay on SW-620 colon it was greater than 100000 nM; in the assay with HT29 colon, greater than 100000 nM; in the assay with HCC-2998 colon, 80200 nM.

With `Cc1cc(Cl)ccc1NC(=O)CC/C(CC(=O)C(C)C)=N\NC(=O)C[n+]1ccccc1`, the concentration for total growth inhibition (TGI) in the assay on NCI-H522 lung, in the assay with IGROV1 ovarian, with SK-OV-3 ovarian, in the assay with M14 melanoma, in the assay on CAKI-1 renal and in the assay on TK-10 renal was greater than 100000 nM in each case. Besides, the TGI with MALME-3M melanoma, in the assay on SW-620 colon, with HT29 colon and in the assay on HCC-2998 colon was greater than 100000 nM throughout.

Turning to `COc1ccc(C(=O)c2cc3c(N)c(C(=O)Nc4cccc5ccccc45)sc3nc2C)cc1`, the GI50 was 226 nM in the assay with NCI-H522 lung; 268 nM with IGROV1 ovarian; 429 nM in the assay on SK-OV-3 ovarian; 166 nM with M14 melanoma; 243 nM in the assay on CAKI-1 renal; greater than 50000 nM in the assay on TK-10 renal. Moreover, the GI50 in the assay on MALME-3M melanoma was 378 nM; in the assay with SW-620 colon, 203 nM; in the assay on HT29 colon, 183 nM; in the assay on HCC-2998 colon, 424 nM. The TGI in the assay on NCI-H522 lung, in the assay on IGROV1 ovarian, with SK-OV-3 ovarian, in the assay with M14 melanoma, in the assay on CAKI-1 renal and in the assay with TK-10 renal was greater than 50000 nM in each case. The TGI with MALME-3M melanoma, with SW-620 colon, with HT29 colon and in the assay with HCC-2998 colon was greater than 50000 nM each time.

Take `CC1(C)[C@@H](OC(N)=O)[C@H]2O[C@H]2[C@]2(CO)[C@H]3CC[C@]4(C)[C@@H](c5ccc(=O)oc5)[C@@H](Cl)C[C@]4(O)C3=CC[C@@H]12`: the 50% growth inhibitory concentration (GI50) is 4.55 nM with NCI-H522 lung; 11.6 nM in the assay on IGROV1 ovarian; 6.61 nM with SK-OV-3 ovarian; 16.1 nM in the assay on M14 melanoma; 5.21 nM in the assay with CAKI-1 renal; 5.55 nM in the assay on TK-10 renal. Moreover, the GI50 was 6.16 nM in the assay on MALME-3M melanoma, 8.35 nM in the assay with SW-620 colon, 7.96 nM in the assay on HT29 colon and 15.1 nM with HCC-2998 colon. The total growth inhibition concentration (TGI) in the assay with NCI-H522 lung is 14.7 nM; with IGROV1 ovarian, 93.8 nM; in the assay with SK-OV-3 ovarian, 18 nM; with M14 melanoma it was 55.8 nM; in the assay with CAKI-1 renal, 13.2 nM; in the assay with TK-10 renal, 15 nM. Moreover, the TGI is 14.9 nM in the assay on MALME-3M melanoma, 27.9 nM in the assay on SW-620 colon, 23.8 nM in the assay with HT29 colon and 107 nM in the assay on HCC-2998 colon.

In the case of `C=C1C(=O)OC2/C=C(/C)C(OC(C)=O)CC(O)/C(C)=C\C(OC(=O)/C(C)=C\C)C12` (centres undefined), the TGI with NCI-H522 lung is 22700 nM; with IGROV1 ovarian it was greater than 100000 nM; in the assay with SK-OV-3 ovarian, greater than 100000 nM; with M14 melanoma, greater than 100000 nM; with CAKI-1 renal, 86400 nM; in the assay on TK-10 renal, greater than 100000 nM. The TGI in the assay with MALME-3M melanoma is 30900 nM; in the assay with SW-620 colon it was 67600 nM; in the assay with HT29 colon, greater than 100000 nM; with HCC-2998 colon it was greater than 100000 nM.

Regarding `CC1=C2C(=CC(C)(C)C2O)C(=O)C(C)(O)C12CC2` (centres undefined), the TGI is 17 nM in the assay on NCI-H522 lung; 132 nM with IGROV1 ovarian; 175 nM with SK-OV-3 ovarian; 60.2 nM in the assay with M14 melanoma; 31.5 nM in the assay with CAKI-1 renal; 140 nM with TK-10 renal. The TGI with MALME-3M melanoma was determined as 33.7 nM; in the assay with SW-620 colon it was 75.2 nM; in the assay on HT29 colon, 31.1 nM; with HCC-2998 colon, 26.8 nM.

With `NC(=S)N/N=C/c1ncccc1N`, the GI50 with NCI-H522 lung was 1710 nM; in the assay on IGROV1 ovarian, 807 nM; in the assay with SK-OV-3 ovarian it was 3240 nM; in the assay with CAKI-1 renal it was 357 nM; in the assay on TK-10 renal, 50500 nM; in the assay on MALME-3M melanoma it was 3000 nM. The values for the GI50 in the assay with SW-620 colon, with HT29 colon and in the assay with HCC-2998 colon were 1450 nM, 2190 nM and 1140 nM, respectively. The TGI with NCI-H522 lung is 6620 nM and > 10000 nM; with IGROV1 ovarian, greater than 100000 nM; in the assay on SK-OV-3 ovarian it was 51300 nM and > 10000 nM; with M14 melanoma, 5270 nM and 2620 nM; in the assay with CAKI-1 renal, greater than 38500 nM; in the assay on TK-10 renal it was greater than 100000 nM. Moreover, the concentration for total growth inhibition (TGI) with MALME-3M melanoma is greater than 90500 nM; in the assay on SW-620 colon, greater than 48400 nM; in the assay with HT29 colon, greater than 63400 nM; in the assay with HCC-2998 colon it was greater than 100000 nM.
